Measurements taken from patent US20190079094A1, “SUBCELLULAR LOCALIZATION OF TARGET ANALYTES” (Beckman Coulter, Inc., priority 2016, published 2019).
Entries after “also recorded” stand apart in the source; their conditions may differ.

Tests used:
MCF-7 cells = assay: Modified protocol with MCF-7 cells preloaded with CytoCalcein Violet; type: cell-based, human; settings: for concentration permeabilizing only the plasma (cytoplasmic) membrane: loss of CytoCalcein Violet
Protocol: FIG. 4. Modified Protocol to Assess the Permeabilization of the Plasma Membrane with MCF-7 Cells. The cells were preloaded with CytoCalcein Violet, and cytoplasmic membrane permeabilization is indicated by the loss of this signal. In this experiment, 0.025% Digitonin or TX-100 permeabilized only the cytoplasm, while 0.25% of either fully permeabilized the both cytoplasmic and nuclear membranes.
In this experiment, after the cells had been plated for 24 hours, they were preloaded for 1 hour with 1 μM CytoCalcein Violet and then processed as indicated in FIG. 3. When the samples were ready for cover-slipping, mounting medium without DAPI was used. Images were captured on a Zeiss Axioskop 2 Plus microscope together with a 63× oil-immersion lens. In this figure, MCF-7 cells that were not permeabilized can be seen to be loaded with CytoCalcein Violet, and this staining is lost once the plasma membrane is permeabilized. […] In this experiment, 0.025% of both Digitonin and TX-100 can be seen to permeabilize the plasma membrane, while 0.25% of both can be seen to permeabilize the whole cell. This modified protocol was used for subsequent testing of the performance of the different detergents with whole blood and PBMCs by flow cytometry, including for the results in FIG. 2.

[1] = test system: Lymphocytes and Monocytes in whole blood; assay: Performance of detergents with whole blood (alternative approaches); type: cell-based; settings: for concentration at which surface markers are lost and cells disintegrate: Buffer 2 upper bound
Protocol: An exemplary kit is composed of two separate buffers for whole-blood mononuclear cells (i.e., lymphocytes+monocytes): 1) The first buffer is to permeabilize the cytoplasm, including the ER, the endosomal system, and the outer mitochondrial membrane, while 2) the second buffer is to permeabilize everything permeabilized by the first buffer, plus the nucleus (and, in some embodiments, the inner mitochondrial matrix). Buffer 1 (Cytoplasm) may be composed of: 1-100 mM MES pH 4.5-6.5, 0-274 mM NaCl, 0-5.4 mM KCl, and 0.01-0.15% Digitonin. The optimal detergent concentration for Buffer 1 is between […] Digitonin, where the cytoplasm is lysed but the nucleus is not. Buffer 2 (Whole Cell) may be composed of: 1-100 mM MES pH 4.5-6.5, 0-274 mM NaCl, 0-5.4 mM KCl, and >0.01% Digitonin or >0.0125% Triton X-100. The optimal detergent concentration for Buffer 2 depends on the sample type, with the upper bound limited by the loss of surface markers and the disintegration of cells that occurs around 2% for both.
The methods of the invention rely on different detergents or detergent concentrations in order to gently lyse the cytoplasm plus as many cytoplasmic components as possible in one tube, and the whole cell including the nucleus in the other tube. For this reason, a variety of detergents will work to accomplish this task. Some are as follows, with reference to their performance with whole blood: […]

[2] = test system: T cells and monocytes in whole blood; assay: Digitonin and TX-100 titration on whole blood, flow cytometry (CytoCalcein Violet loss, HDAC1 staining); type: cell-based; settings: for concentration at which the nucleus is also permeabilized: peaked HDAC1 staining
Description: (§1) FIGS. 2A and 2B. Digitonin and TX-100 Titrations to Determine the Optimal Concentrations for Cytoplasmic vs. Nuclear Membrane Permeabilization. A) The cytoplasmic membrane in whole blood is fully permeabilized around 0.031% Digitonin, while the nucleus is also permeabilized around 0.5% Digitonin or 0.125% TX-100. B) The cytoplasmic membrane in PBMCs is fully permeabilized around 0.0016% Digitonin, while the nucleus is also permeabilized around 0.05% Digitonin or 0.025% TX-100. In this figure, the reduction in Calcein signal is indicative of permeabilization of the plasma membrane, while the peaked HDAC1 staining indicates complete nuclear permeabilization. The ledge that forms with HDAC1 prior to complete lysis is due to lysis of the endoplasmic reticulum, which also contains HDAC1.
(§2) FIG. 2 is a comparison of the efficiency of cytoplasmic vs. nuclear permeabilization of T cells and monocytes by different concentrations of Digitonin or TX-100. FIG. 2A is a titration performed on whole blood, while FIG. 2B is a titration performed on PBMCs. In both cases, the samples were first preloaded for 1 hour with 1 μM CytoCalcein Violet (AAT Bioquest, Inc) in a CO2-regulated 37° C. incubator. After 1 hour, the samples were fixed for 10 min with 4% PFA, and then incubated for 30 min at RT with the different concentrations of detergents diluted in diH2O, at a 1:5 ratio with the sample mixture. The samples were then washed and stained with anti-HDAC1-FITC (Abcam, Plc), washed again, and finally read on a Gallios flow cytometer (BCI). In this figure, cytoplasmic lysis is indicated by the loss of CytoCalcein Violet signal as it is released from the cell once the plasma membrane is permeabilized, while nuclear lysis is indicated by the increased HDAC1 signal as the nuclear membrane is permeabilized. In the case of Digitonin lysis, there is a ledge of HDAC1 staining once the plasma membrane is lysed and prior to full nuclear lysis; this is indicative of lysis of the endoplasmic reticulum, which also contains a repository of HDAC1. In whole blood, there is a working range for Digitonin between roughly 0.015% and 0.125%, where the plasma membrane is lysed, but the nucleus is not. For PBMCs, this range is roughly between 0.001% and 0.0125%.

[3] = test system: T cells and monocytes in PBMCs; assay: Digitonin and TX-100 titration on PBMCs, flow cytometry (CytoCalcein Violet loss, HDAC1 staining); type: cell-based; settings: for concentration at which the nucleus is also permeabilized: peaked HDAC1 staining
Description: as §1, §2

[4] = test system: T cells and monocytes in whole blood; assay: Optimal lysis parameters for whole blood in MES-buffered solution (HSP60, Lamin A/C); type: cell-based; settings: 5% fixative
Description: FIGS. 5A and 5B. Cytoplasmic vs. Nuclear Membrane Permeabilization in a Whole Blood Sample using the Optimal Buffer Compositions. A) The CD45 vs. SS and FS vs. SS profiles of the samples after lysis. B) The degree of mitochondrial vs. nuclear membrane permeabilization in T cells. C) The degree of mitochondrial vs. nuclear membrane permeabilization in Monocytes. All of the detergent concentrations used in this experiment fully permeabilized the plasma membrane, while HSP60 and Lamin A/C indicate the degree of mitochondrial inner membrane and nuclear membrane permeabilization, respectively.
FIG. 5 indicates the optimal lysis parameters for whole blood, including modified buffer conditions in order to improve RBC lysis. […] In order to improve RBC lysis, the solution was ultimately buffered with MES at a pH between 4.5-6.5 (such as a pH of 5.5), which also allowed the salt concentration to be increased to physiological levels. This further improved the scatter profiles of the WBCs, decreased the time required for complete lysis to approximately 15 minutes, and improved the RBC lysis efficiency to the point that the buffers still work well if the fixation time is extended well beyond protocol (>20 min). At the same time, the fixative concentration was increased to 5% due to improved performance. In FIG. 5A, the scatter profiles for the optimal lysis parameters can be seen, where 0.0625% Digitonin is optimal for cytoplasmic membrane permeabilization, and either 0.5% Digitonin or 0.25% TX-100 are optimal for whole-cell membrane permeabilization. […] In both cases, the permeabilization profiles can be seen to be consistent with the defined optimal detergent concentrations.

[5] = Precipitation of detergent from solution at reduced pH; type: physicochemical; settings: regardless of the concentration
Description: However, the performance of CHAPS decreases at lower pHs, and Sodium Deoxycholate immediately precipitates out of solution at pHs lower than ˜7.0 regardless of the concentration. Therefore, these may be useful for PBMCs or cell lines where a reduced pH is not necessary, but not for whole blood.

[6] = test system: CREB, RelA and ERK phosphorylation in monocytes; assay: Stimulation of monocytes with LPS or GM-CSF, cytoplasmic vs. nuclear signaling; type: cell-based; settings: 1 μg/mL LPS or 100 ng/mL GM-CSF
Protocol: FIG. 8. Differential Signaling in Monocytes Induced by 1 μg/mL LPS vs. 100 ng/mL GM-CSF. A) Both LPS and GM-CSF induced CREB phosphorylation at S133, accumulating maximally in the nucleus by 10 min. B) LPS stimulation induced RelA phosphorylation maximally by 10 min in both the cytoplasm and nucleus, though predominantly in the nucleus. C) Both LPS and GM-CSF stimulated ERK phosphorylation primarily in the cytoplasm, maximally by 5 min for GM-CSF and 10 min for LPS.
The protocol for processing whole blood samples is as follows (see FIG. 1 for a workflow): 1) The sample is first mixed 1:1 with fixative, vortexed, and then incubated for 10 minutes. An extra control tube is included for each buffer, which is stained with all antibodies except for the specific signaling or target antibodies being tested in order to subtract the background signal. The background control may also be labeled with isotype-control antibodies for more precise determination of non-specific binding, especially in cells that have characteristically high non-specific binding, such as neutrophils. For indirect antibody labeling, omitting the primary antibody, but still utilizing the secondary antibody, is a common method for determining the degree of non-specific background signal attributable to the secondary antibody, which is typically higher than the direct conjugates of target antibodies. […] 6) Once stained, the samples are again washed 2× with PBS or wash buffer, resuspended in PBS+0.5% PFA, and read on a flow cytometer.
After data acquisition, the samples are gated, compensated, and analyzed as standard flow cytometry samples. […] For example, if staining for the subcellular distribution of FoxP3, where the Background MFIs for the Cytoplasm and Whole Cell are 1.5 and the raw FoxP3 signal is 3.5 and 31.5 for the Cytoplasm and Whole Cell, respectively, then the Cytoplasmic MFI would be calculated to be 2 (i.e., 3.5 (raw)−1.5 (background)=2) and the Nuclear MFI would be calculated to be 28 (i.e., 31.5 (raw)−1.5 (background)−2 (Cytoplasm)=28). […]

Row | Compound | concentration permeabilizing the whole cell (cytoplasmic and nuclear membranes) (MCF-7 cells) | concentration permeabilizing only the plasma (cytoplasmic) membrane (MCF-7 cells) | concentration at which surface markers are lost and cells disintegrate [1] | concentration for complete lysis of the cells [2] | concentration at which the nucleus is also permeabilized [2] | concentration for complete lysis of the cells [3] | concentration at which the nucleus is also permeabilized [3] | optimal concentration for whole-cell membrane permeabilization [4] | also measured
1 | ethyoxylated octylphenol [TX-100] | 0.25% | 0.025% | around 2% | 0.125% | ~0.125% | 0.025% | ~0.025% | 0.25% | working range where the plasma membrane is lysed but the nucleus is not [2]: does not provide this working range
2 | Octylphenoxypoly(ethylene-oxy)ethanol [NP-40] |  |  |  |  |  |  |  |  | performance compared with TX-100 ([1]; whole blood): performs equivalently to TX-100; also recorded: interchangeable with TX-100 for whole-cell permeabilization
3 | C[C@@H]1CC[C@@]2(OC1)O[C@H]1[C@@H](O)[C@H]3[C@@H]4CC[C@H]5C[C@@H](O[C@@H]6O[C@H](CO)[C@H](O[C@@H]7O[C@H](CO)[C@@H](O)[C@H](O[C@@H]8OC[C@@H](O)[C@H](O)[C@H]8O)[C@H]7O[C@@H]7O[C@H](CO)[C@H](O)[C@H](O[C@@H]8O[C@H](CO)[C@@H](O)[C@H](O)[C@H]8O)[C@H]7O)[C@H](O)[C@H]6O)[C@H](O)C[C@]5(C)[C@H]4CC[C@]3(C)[C@H]1[C@@H]2C [Digitonin] | 0.25% | 0.025% | around 2% | 0.25% | around 0.5% | 0.025% | around 0.05% | 0.5% | concentration at which the cytoplasmic membrane is fully permeabilized ([2]; reduction in Calcein signal): around 0.031%; concentration at which the cytoplasmic membrane is fully permeabilized ([3]; reduction in Calcein signal): around 0.0016%; optimal concentration for cytoplasmic membrane permeabilization [4]: 0.0625%
4 | Sodium Deoxycholate |  |  |  |  |  |  |  |  | pH below which the detergent immediately precipitates out of solution [5]: < 7.0
5 | GM-CSF: cytokine activator reagent |  |  |  |  |  |  |  |  | time of peak RelA S536 phosphorylation [6]: did not stimulate RelA phosphorylation at S536; time of peak ERK phosphorylation (S202/T204) ([6]; primarily cytoplasm): ≤ 5 min
